Key:
[1] = molecular target: T1, human FGFR3 wild type enzyme (cytoplasmic domain) (Homo sapiens, UniProt P22607); experiment: FGFR3 wild type mobility shift assay (enzymatic assay); format: biochemical; details: 75 μM ATP, 50 minutes at 30° C., Caliper EZ reader II
T1 construct: human FGFR3 wild type enzyme (cytoplasmic domain, from Carna Biosciences); purchased Carna Biosciences
Outline: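 Cytoplasmic domain of human wild-type FGFR3 (0.04 ng/μL) with 75 μM ATP and 1 μM FL-peptide 30, pH 7.4 HEPES/MgCl2 buffer, 1% DMSO, 50 min at 30 °C, EDTA-stopped. Substrate-product conversion read by mobility shift. IC50, pIC50 and Hill slope from 10-point 4-fold dilutions starting at 10 μM.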

[2] = molecular target: T2, NIH/3T3 cells overexpressing FGFR3 V555M-TACC3 fusion protein (Homo sapiens, UniProt P22607, V555M, cells depend on it); experiment: NIH/3T3 FGFR3 V555M-TACC3 cell proliferation assay; format: cell-based; details: 72-hr incubation, CellTiter Glo, starting with 10 μM; read-out: NIH/3T3 FGFR3 V555M-TACC3 CTG (IC50)
T2 construct: NIH/3T3 FGFR3 V555M-TACC3 CTG (IC50); other: 72-hr incubation, CellTiter Glo, starting with 10 μM; fused on or other part: Q9Y6A5 (Transforming acidic coiled-coil-containing protein 3)
Outline: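 NIH/3T3 cells overexpressing FGFR3 V555M-TACC3 fusion, 30,000/well in DMEM/10% FBS, treated for 72 h at 37 °C with 9 doses (4× dilutions from 10 μM top, 0.1% DMSO). CellTiter-Glo luminescence normalised to % survival; IC50, pIC50 and Hill slope from concentration-response fits.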

[3] = test system: NIH/3T3 cells overexpressing FGFR3 V555M-TACC3 fusion protein; experiment: NIH/3T3 FGFR3 V555M-TACC3 cellular phospho-ERK assay (in vitro PD assay); format: cell-based; details: Mus musculus, NIH3T3; 1-hr incubation, AlphaLISA SureFire Ultra p-ERK1/2 (Thr202/Tyr204); read-out: NIH/3T3 FGFR3 V555M-TACC3 pERK (IC50)
Description: NIH/3T3 FGFR3 V555M-TACC3 Cellular Phospho-ERK Assay (In Vitro PD Assay)
50 μL of cell suspension (NIH/3T3 cells overexpressing FGFR3 V555M-TACC3 fusion protein) (total 10,000 cells per well in growth medium (DMEM containing 1% Glutamax, 10% FBS and 1% Pen/Strep)) was seeded in a 384-well plate. After overnight incubation at 37° C. and 5% CO2, 5.5 μL of growth medium containing 10× testing compound was added into cell cultures (10 dose points with 4× serial dilution, starting with 10 μM, 0.1% DMSO final). After 1-hr incubation at 37° C. and 5% CO2, the medium was depleted and AlphaLISA SureFire Ultra p-ERK1/2 (Thr202/Tyr204) Assay Kit (from PerkinElmer) was applied for phospho-ERK level detection according to the kit instructions. The RFUs (relative fluorescence units were measured on EnVision microplate reader (ex. 680 nm, em. 615 nm) and concentration-response curve was plotted using Prism to calculate IC50 (M), pIC50 (−log IC50) and HillSlope value.

[4] = molecular target: T3, NIH/3T3 cells overexpressing FGFR3 WT-TACC3 fusion protein (Homo sapiens, UniProt P22607); experiment: NIH/3T3 FGFR3 WT-TACC3 cell proliferation assay; format: cell-based; details: 72-hr incubation, CellTiter Glo, starting with 10 μM; read-out: NIH/3T3 FGFR3 WT-TACC3 CTG (IC50)
T3 construct: NIH/3T3 FGFR3 WT-TACC3 CTG (IC50); other: 72-hr incubation, CellTiter Glo, starting with 10 μM; fused on or other part: Q9Y6A5 (Transforming acidic coiled-coil-containing protein 3)
Outline: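 Cells seeded overnight, then exposed 72 h at 37 °C to compound in 9-point 4-fold dilutions from 10 μM (0.1% DMSO final). Viability read by CellTiter-Glo luminescence, normalized to survival %; IC50, pIC50 and Hill slope from concentration-response fit.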

T1 sequence (P22607 397-806 limits assumed): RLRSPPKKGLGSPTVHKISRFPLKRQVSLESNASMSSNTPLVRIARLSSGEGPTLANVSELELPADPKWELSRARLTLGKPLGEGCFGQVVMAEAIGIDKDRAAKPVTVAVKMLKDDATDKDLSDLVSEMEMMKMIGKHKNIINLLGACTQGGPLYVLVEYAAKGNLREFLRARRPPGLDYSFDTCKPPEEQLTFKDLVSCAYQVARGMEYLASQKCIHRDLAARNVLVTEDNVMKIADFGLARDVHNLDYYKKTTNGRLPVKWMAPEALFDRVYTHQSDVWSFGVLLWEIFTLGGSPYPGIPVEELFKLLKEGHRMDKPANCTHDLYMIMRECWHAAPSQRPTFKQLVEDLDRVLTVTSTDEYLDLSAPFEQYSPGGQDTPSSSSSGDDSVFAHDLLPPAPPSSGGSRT
T3 sequence (P22607 whole entry, change not shown, the tested form may be a part): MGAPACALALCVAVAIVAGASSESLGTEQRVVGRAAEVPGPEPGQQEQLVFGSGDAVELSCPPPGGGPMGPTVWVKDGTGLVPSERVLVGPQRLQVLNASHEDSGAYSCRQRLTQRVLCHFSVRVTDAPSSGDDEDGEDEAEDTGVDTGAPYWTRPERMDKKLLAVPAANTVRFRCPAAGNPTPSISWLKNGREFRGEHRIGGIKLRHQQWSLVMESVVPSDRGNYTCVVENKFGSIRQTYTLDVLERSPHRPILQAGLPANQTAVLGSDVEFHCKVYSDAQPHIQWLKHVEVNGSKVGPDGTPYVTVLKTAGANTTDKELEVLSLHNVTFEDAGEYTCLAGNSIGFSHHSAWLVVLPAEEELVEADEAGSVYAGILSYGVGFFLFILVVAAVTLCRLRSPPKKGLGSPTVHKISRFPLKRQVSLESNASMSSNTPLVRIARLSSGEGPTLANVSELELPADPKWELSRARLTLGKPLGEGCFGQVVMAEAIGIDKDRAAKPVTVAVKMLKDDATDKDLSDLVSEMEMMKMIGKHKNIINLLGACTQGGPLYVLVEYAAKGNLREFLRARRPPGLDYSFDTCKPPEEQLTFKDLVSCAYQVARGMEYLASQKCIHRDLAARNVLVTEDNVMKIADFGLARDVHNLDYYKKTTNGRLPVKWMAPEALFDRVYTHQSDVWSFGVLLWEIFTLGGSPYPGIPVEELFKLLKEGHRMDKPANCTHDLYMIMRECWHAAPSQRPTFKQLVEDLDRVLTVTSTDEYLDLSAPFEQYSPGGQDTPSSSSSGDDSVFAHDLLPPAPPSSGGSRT
T2 sequence (P22607 whole entry V555M, the tested form may be a part): as the sequence (P22607 whole entry, change not shown, the tested form may be a part) above, with V555M counted along it

IC50 [1]	GI50 [2]	GI50 [4]	Structure (SMILES)	IC50 [3]
2.18 nM	39.4 nM	20.2 nM	C[C@H](Nc1c(-c2nc3ccc(N4CCOCC4)c(F)c3[nH]2)c(=O)[nH]c2ccccc12)c1ccccn1 [Compound 24, (S)-3-(7-fluoro-6-morpholino-1H-benzo[d]imidazol-2-yl)-4-((1-(pyridin-2-yl)ethyl)-amino)quinolin-2(1H)-one]	0.959 nM
2.59 nM	42.7 nM	24.8 nM	C[C@@H]1CN(c2ccc3nc(-c4c(N[C@@H](C)c5ccccn5)c5ccccc5[nH]c4=O)[nH]c3c2)C[C@H](C)O1 [Compound 4, 3-(6-((2S,6R)-2,6-dimethylmorpholino)-1H-benzo[d]imidazol-2-yl)-4-(((S)-1-(pyridin-2-yl)ethyl)amino)quinolin-2(1H)-one]	1.09 nM
5.04 nM	48.8 nM	25 nM	C[C@@H]1CN(c2ccc3nc(-c4c(N[C@@H](C)c5ccccn5)c5ccccc5[nH]c4=O)[nH]c3c2)C[C@@H](C)O1 [Compound 21, 3-(6-((2R,6R)-2,6-dimethylmorpholino)-1H-benzo[d]imidazol-2-yl)-4-(((S)-1-(pyridin-2-yl)ethyl)amino)quinolin-2(1H)-one]	2.35 nM
0.337 nM	4.89 nM	3.61 nM	C[C@H](Nc1c(-c2nc3ccc(N4CCOCC4)cc3[nH]2)c(=O)[nH]c2ccccc12)c1ncccn1 [Compound 2, (S)-3-(6-morpholino-1H-benzo[d]imidazol-2-yl)-4-((1-(pyrimidin-2-yl)ethyl)amino)-quinolin-2(1H)-one]	0.946 nM
